Measurements reported in patent publication US11141450B2, “Compositions for reducing appetite and craving, increasing satiety, enhancing mood, and reducing stress” (NEKTIUM PHARMA, S.L., priority 2017, dated 2021).

Tests used:
Fisher 344 rats [1] = assay: EEG signals by telemetry from implanted electrodes in freely moving rats, Example 1; format: in vivo; conditions: first hour; all brain areas; p<0.01 relative to pre-drug baseline for the reference drugs; Rimonabant 5 mg/kg, Methylphenidate 1.0 mg/kg, Selegiline 1.5 mg/kg; FIG. 1
Excerpt: Fisher 344 rats (11 months of age and day-night converted, weight about 350-400 g, provided by Charles River Laboratories, D-97633, Sulzfeld) were used in a series of experiments on the effects of various herbal and pharmaceutical products on central nervous system activity. Products were provided to the test subjects orally (gavage).
The substances tested in this study included: • A control vehicle (0.9% NaCl); • Cyperus esculentus tuberous rhizome, ethanol extract, administered in an amount of 200 mg/kg to 7 rats; • Mango leaf, ethanol extract, administered in an amount of 50 mg/kg to 7 rats; • Cyperus Esculentus tuberous rhizome peel, ethanol extract, 150 mg/kg, plus Mango leaf extract, containing 60% of Mangiferin, 50 mg/kg, administered to 5 rats • Selegiline, administered in amount of 1.5 mg/kg to 8 rats • Methylphenidate administered in an amount of 1.0 mg/kg to 8 rats • Rimonabant administered in amount of 5 mg/kg to 6 rats
EEG signals were recorded by telemetry from 4 implanted electrodes in the frontal cortex, hippocampus and striatum of freely moving rats from inside a totally copper shielded room. Signals were collected in sweeps of 4-second duration and Fast Fourier transformed using a Hanning window. EEG signals were recorded over a period starting 5 minutes after administration of the test substances, and ending 65 minutes after administration of the test substances. Sampling frequency was 512 Hz. […] In an off-line procedure, the spectra were averaged to give longer periods for further analysis and data presentation. Spectral activity within the frontal cortex, hippocampus, striatum and reticular formation was recorded.

Fisher 344 rats [2] = assay: EEG signals by telemetry from implanted electrodes in freely moving rats, first hour and fifth hour, Example 2; format: in vivo; conditions: first hour after administration and 5 hours after administration
Method: Products were provided to the test subjects orally (gavage).
EEG signals were recorded by telemetry from 4 implanted electrodes in the frontal cortex, hippocampus and striatum of freely moving rats from inside a totally copper shielded room.

| Structure (SMILES) | effect on alpha-2 waves (Fisher 344 rats [1]) | impact on alpha-1 brain wave activity in the hippocampus (Fisher 344 rats [2]) |
| --- | --- | --- |
| COC(=O)C(c1ccccc1)C1CCCCN1 (stereo not shown) [Methylphenidate] | main significant effect |  |
| O=c1c2cc(O)c(O)cc2oc2cc(O)c([C@@H]3O[C@H](CO)[C@@H](O)[C@H](O)[C@H]3O)c(O)c12 [pure Mangiferin, Mangiferin] |  | Neither Tigernut extract nor Mango leaf extract (60% Mangiferin) or pure Mangiferin administered alone showed a significant decrease of alpha-1 brain wave activity |
| Cc1c(C(=O)NN2CCCCC2)nn(-c2ccc(Cl)cc2Cl)c1-c1ccc(Cl)cc1 [Rimonabant] | main significant effect |  |
| C#CCN(C)[C@H](C)Cc1ccccc1 [Selegiline] | main significant effect |  |
